# Measured values published in patent US12398123B2, “Chemical inhibition of the E3 ligase subunit FBXO7 confers neuroprotection and anti-inflammatory activity by stabilizing mitochondria” (University of Pittsburgh—Of the Commonwealth System of …, priority 2017, dated 2025).
# Peptide text beside a SMILES is read from it. * marks the point of attachment. Cbz = O=C(OCc1ccccc1)*
# Experiments:
# Pink1 [1] = test: Pink1 protein stability (CHX chase) in BEAS-2B cells; settings: 1 μg/ml for 16 h, then CHX 40 μg/ml
# SH-SY5Y cells = test: MPP+ elicited injury in SH-SY5Y cells, AlamarBlue cell viability; settings: 5 μg/ml with MPP+ for 24 h, relative to BC1465
# Pink1 [2] = test: target validation: Pink1 levels in BEAS-2B cells with control or Fbxo7 siRNA; settings: Fbxo7 siRNA 3 days, compound 18 h
# primary cortical neurons = test: morphological injury of GFP-transfected primary cortical neurons challenged with MPP+; settings: MPP+ 24 h
# [3] = tested on: TNF release from human PBMCs; test: LPS stimulated TNF secretion from PBMCs (ELISA); assay type: cell-based; settings: 2 h pretreatment, then LPS 10 ng/ml 4 h
# [4] = tested on: P. aeruginosa (PA103) lung inflammatory injury; test: experimental pneumonia: mice given PA103 i.t.
# [5] = intracerebral ventricular infusion in mice for 2 weeks (tolerability); assay type: in vivo, mouse; settings: 10 ug/ml via intracerebral ventricular infusion for 2 weeks
# Description: BC 1464 was administered in artificial CSF with DMSO by intracerebroventricular pump to C5bl/6 mice.
# H9C2 cells [6] = test: tBHP-induced mitochondrial injury in H9C2 cells, MitoTracker Red flow cytometry; settings: 100 ng/ml 16 h, tBHP 100 μM 45 min
# H9C2 cells [7] = test: CCCP triggered mitochondrial injury in H9C2 cells, Mitosense Red and Annexin V flow cytometry; assay type: cell-based, rat; settings: 100 ng/ml 16 h, CCCP 20 μM 2 h; CCCP alone 17.2%
# primary fibroblasts = test: 6-OHDA model in primary fibroblasts; settings: 6-OHDA 300 M (unit prefix printed as image), 19 h
# H9C2 cells [8] = test: mitochondrial membrane potential after CCCP in H9C2 cells, JC1 staining, confocal microscopy; settings: 100 ng/ml 16 h, CCCP 20 μM 2 h
# [9] = tested on: cytokine release from human lung explants; test: human lung slices challenged with LPS: TNFα ELISA of supernatant; settings: compound 4 h, then LPS 100 ng/ml 4 h
# [10] = tested on: late neural progenitor cells differentiated from a human iPSC line; test: DMSO-induced cell death in late neural progenitor cells from an SNCA triplication iPSC line; assay type: cell-based; settings: 5 ng/mL for 1 wk
# Description: Methods. Late neural progenitor cells were derived from an iPSC line from a PD patient with SNCA gene triplication, as previously described (D'Aiuto et al. Organogenesis 10(4): 365-377). […] Images were acquired with a 40× oil objective (1.30 NA) on an Olympus IX71 microscope using Olympus CellSens V1.17 with a DP80 camera. Cell death was assessed by counting condensed/fragmented nuclei. Results.
# PINK1 [11] = test: human lung slices challenged with LPS: Pink1 immunoblotting; settings: compound 4 h, then LPS 100 ng/ml 4 h
# PINK1 [12] = assay type: cell-based, human; settings: SHSY5Y PINK1-Flag, compound 3 h, cycloheximide 10 μg/ml 1 h
# Description: FIGS. 7A-7H. […] FIG. 7A. […] FIG. 7B. […] FIG. 7C. […] FIG. 7D-7E. […] Scale bar=100 μm.
# Pink1 [13] = test: Pink1 protein decay in BEAS-2B cells with proteasomal or lysosomal inhibitors and CHX; assay type: cell-based; settings: 30 min pretreatment (MG132 20 μM, leupeptin 100 μM), then CHX 40 μg/ml
# Description: FIGS. 1A-1E. Fbxo7 mediates Pink1 polyubiquitylation and proteasomal degradation. FIG. 1A. BEAS-2B cells were pretreated with MG132 (20 μM), leupeptin (100 μM), or diluent (control, CON) for 30 min, and then were treated with CHX (40 μg/ml) to assay protein decay. The cell lysates were obtained at the indicated time points for immunoblotting. FIG. 1B. BEAS-2B cells were nucleofected with V5-tagged Fbxo7 plasmid at indicated amounts and incubated for 48 h, the whole cell lysates were subjected to immunoblotting. FIG. 1C. BEAS-2B cells were nucleofected with 4 individual shRNAs respectively and analyzed by immunoblotting. FIG. 1D. BEAS-2B cells were nucleofected with control shRNA or Fbxo7 shRNA for 72 h, and then treated with CHX (40 μg/ml). The cells were collected at indicated time points for half-life analysis. FIG. 1E. In vitro ubiquitylation assays were performed with synthesized Pink1 combined with indicated recombinant proteins.
# Cell Culture and Transfection.
# Pink1 undergoes rapid proteolysis in cells, and the cleaved Pink1 fragment may be degraded through the N-end rule pathway. To test if full length Pink1 is subjected to ubiquitin mediated degradation, we evaluated the ability of proteasomal or lysosomal inhibitors to regulate stability of the kinase. […]
# [14] = 5 mg/kg intraperitoneal, 18 h, compared to vehicle control or BC1465
smiles,measurement,setting,value
"N#Cc1ccccc1Cn1c(=O)n(CCCC(=O)NCc2ccc3c(c2)OCO3)c(=O)c2ccccc21 [BC1465, reference compound]",Pink1 protein stability upon inhibiting protein synthesis,Pink1 [1],no effect on Pink1 protein stability
O=C(CCCn1c(SCC(=O)NCC2CCCO2)nc2ccccc2c1=O)NCc1ccccc1 (stereo not drawn) [BC1464],MPP+ elicited injury (cell viability),SH-SY5Y cells,significantly decreased MPP+ elicited injury
same,Pink1 levels after Fbxo7 siRNA treatment,Pink1 [2],not observed
same,retraction and simplification of the dendritic arbor,"primary cortical neurons; 5 μg/ml, versus BC1465",protect against retraction and simplification of the dendritic arbor
same,cell death in primary cortical neurons,primary cortical neurons,reduce cell death
same,reduction of LPS stimulated release of TNF,[3]; 1 ng/ml,~37%
same,LPS stimulated release of TNF,[3]; 10 ng/ml,potently blocked
same,lavage bacteria counts,"[4]; 5 mg/kg intraperitoneal at time of PA103, 18 h",no effect
same,lavage cell numbers,[4]; [14],significantly decreased
same,lavage cytokine levels,[4]; [14],significantly decreased
same,lavage protein,[4]; [14],significantly decreased
same,toxicity / survival,[5],no overt toxicity
same,protection from tBHP-induced mitochondrial injury,H9C2 cells [6],largely protected mitochondria from oxidative stress
same,mitochondrial injury (damaged mitochondria) after tBHP,"H9C2 cells [6]; tBHP with vehicle 45.3%, untreated 4.1%",26.1%
same,CCCP damaged (depolarized) mitochondria,H9C2 cells [7],10.5%
same,Pink1 protein stability upon inhibiting protein synthesis,Pink1 [1],largely stabilized Pink1
same,protection in the 6-OHDA model,primary fibroblasts,conferred protection
same,mitochondrial membrane potential disrupted by CCCP (JC1),H9C2 cells [8],maintains the mitochondrial membrane potential
same,cytokine release in response to endotoxin,[9],inhibit cytokine release
same,toxicity elicited by DMSO (condensed/fragmented nuclei),[10],prevented toxicity elicited by DMSO
same,Pink1 protein levels in human lung explants,PINK1 [11],selectively increase Pink1 protein levels
same,PINK1 expression in the presence of cycloheximide,PINK1 [12],stabilizes PINK1 expression
CC(C)C[C@@H](C=O)NC(=O)[C@H](CC(C)C)NC(=O)[C@H](CC(C)C)NC(=O)OCc1ccccc1 [MG132] (Cbz-Leu-Leu-Leu-aldehyde),Pink1 accumulation / turnover,Pink1 [13],"accumulated not only the Pink1 fragment, but also full length Pink1"
CC(=O)N[C@@H](CC(C)C)C(=O)N[C@@H](CC(C)C)C(=O)N[C@H](C=O)CCCNC(=N)N [leupeptin],Pink1 accumulation / turnover,Pink1 [13],little impact on basal Pink1 turnover
